Test results published in PMC10855164, “Ligand-Based Design of Selective Peptidomimetic uPA and TMPRSS2 Inhibitors with Arg Bioisosteres” (International Journal of Molecular Sciences, 2024).

Experiment: Parallel Artificial Membrane Permeation Assay (PAMPA)
Assay type: in vitro ADME
Details: TRIS 50 mM pH 7.4, 5% DMSO, 7 h at room temperature
Source text: Following the envisioned applications of the presented inhibitors as drug leads for the treatment of cancer or viral infections, cell permeability is an important factor in the characterization process. […] However, in the organismic contexts of oral bioavailability (facilitated application) and biodistribution (reaching target tissue), adequate permeation is an important quality. To assess this characteristic, PAMPA was used as a suitable model for passive permeation.
Figure S5: Stability analyses of a representative set of inhibitors. The depictions consist of compound structure and number, then analysis at t0, then analysis after 7 h at room temperature, then analysis after 12 h at 37 °C. […]
Incubation setup was assembled and left for 7 h at room temperature. Reference solutions were prepared by simply mixing the indicated volumes of donor and acceptor solutions at the start of the incubation period and analyzed later with the acceptor solutions. […]
Measurement setup for spectroscopy consisted of UV-transparent measurement plate (Greiner UV-Star®, 655801), Tecan Spark 10M® well plate reader, 200 µL sample volume, λ = 200–650 nm. […]
Measurement setup for LC/MS consisted of Agilent 1100 series HPLC system coupled to an Agilent 1100 series LC/MSD Trap with electron spray ionization (ESI). […] Retention time and mass spectrum recorded in positive ionization mode were used to assign species. […]

SMILES | PAMPA permeability Pe | Papp at 7 h (PAMPA, read-out: PAMPA permeability Pe) [×10⁻⁶ cm/s]
CC(=O)N[C@@H](Cc1ccccc1)C(=O)N[C@@H](Cc1ccc(NC(=N)N)cc1)C(=O)c1nc2ccccc2s1 [Compound 33] | not enough to exert measurable permeability | –
CC(=O)NCC(=O)NC(C(=O)NC(C)C(=O)NC(CC1CCC(NC(=N)N)CC1)C(=O)c1nc2ccccc2s1)C(C)O (centres unmarked) [Compound 38] | – | < 1
